Source: PMC8369832, “Purification and Characterization of a Thermo- and pH-Stable Laccase From the Litter-Decomposing Fungus Gymnopus luxurians and Laccase Mediator Systems for Dye Decolorization” (Frontiers in Microbiology, 2021)

Tested on: T1, GLL (purified laccase from Gymnopus luxurians)
T1 construct: native extracellular enzyme purified from fermentation broth; monomer, 64 kDa (SDS-PAGE and gel filtration); N-terminus AIGPVTDLHI; gene not cloned; N-terminus very unlike hypothetical G. luxurians laccases KIK69235.1, KIK58304.1, KIK56882.1
Test: spectrophotometric oxidation at […] nm, Lineweaver-Burk plot
Assay type: biochemical, Collybiopsis luxurians
Details: pH 2.2 (50 mM citric acid-Na2HPO4), 37 °C; ABTS 12.5-800 μM; free enzyme

Km: 539 µM
SMILES: CCn1c(=NN=c2sc3cc(S(=O)(=O)O)ccc3n2CC)sc2cc(S(=O)(=O)O)ccc21 [ABTS, 2,2′-azino-bis(3-ethylbenzothiazoline-6-sulfonic acid)]
